Experimental data: patent publication US12595281B2, “Indodicarbocyanine phosphoramidites with bathochromically shifted absorption and emission, and tunable hydrophobicity” (The Government of the United States of America, as …, priority 2022, dated 2026)

Experiment: Methanol content to elute DNA-dye sequences from reverse phase HPLC column
Type: physicochemical
Conditions: average over sequences HJA-D and HJAcomp containing the dye
Method: Desalted oligo solutions were then analyzed by liquid chromatography-mass spectrometry (LCMS, see Characterization below for more detail) to confirm the presence of correct sequence in the crude product. Samples containing the confirmed dye-labeled DNA sequences were then pooled and purified by preparatory scale reverse phase HPLC (2707 Autosampler, 2545 Quaternary Gradient Module, 2998 Photodiode Array Detector, and Fraction Collector III, Waters, Inc, Milford, MA) using an XBridge OST C18 OBD 19×50 mm column (Part No. 186008962, Waters, Inc, Milford, MA) with a gradient of increasing methanol in 0.1 M TEAA (aq.). For Cy5-hex, Cy5-Peg and Cy5-tBu containing sequences, LC fractions were concentrated to dryness directly from the 0.1 M TEAA buffer/methanol solution. […] Dried LC fractions were reconstituted in small volumes of water (Optima Grade), to keep concentration sufficiently high (25-50 μM) to visualize and separate low percentage impurities on LCMS. Purified fractions were combined, concentrated, then re-analyzed via LCMS for a final purity assessment.
Due to the overall poor solubility of the parent cyanine dye derivatives in water, the octanol-water partition coefficient (log P) could not be determined by the traditional “shake flask” method. In lieu of this approach, modelling software developed by Advanced Chemistry Development, Inc. was used to predict the partition coefficient and solubility in water (log S0), as shown in Table 2. As an additional means of comparison with direct relevance to the final intended utility of these oligos, the average concentration of methanol required to elute the DNA sequences containing the given dye from the reverse phase HPLC column was determined (the greater the methanol content required to elute, the more hydrophobic the dye). The DNA-dye sequences were utilized for this instead of the free dyes because they are capable of eluting at lower methanol content, but the hydrophobic character of the dye still dominates the elution profile. […] This is in close agreement with the relative “stickiness” of the DNA-dye sequences towards […] stationary phase.

Av. % MeOH for DNA-dye elution	SMILES
51%	CCCCCCOc1ccc2c(c1)C(C)(C)C(=CC=CC=CC1=[N+](CCCO)c3ccc(OCCCCCC)cc3C1(C)C)N2CCCOC(c1ccccc1)(c1ccccc1)c1ccc(OC)cc1.[I-] [Cy5-hex, 1-(3-hydroxypropyl)-1′-(3-monomethoxytritylpropyl)-5,5′-bis(n-hexyloxy)-3,3,3′,3′-tetramethyl-dicarboindocyanine iodide]
41%	COc1ccc(C(OCCCN2C(=CC=CC=CC3=[N+](CCCO)c4ccc(C(C)(C)C)cc4C3(C)C)C(C)(C)c3cc(C(C)(C)C)ccc32)(c2ccccc2)c2ccccc2)cc1.[I-] [Cy5-tBu, 1-(3-hydroxypropyl)-1′-(3-monomethoxytritylpropyl)-5,5′-bis(tert-butyl)-3,3,3′,3′-tetramethyl-dicarboindocyanine iodide]
31.5%	COCCOCCOCCOc1ccc2c(c1)C(C)(C)C(=CC=CC=CC1=[N+](CCCO)c3ccc(OCCOCCOCCOC)cc3C1(C)C)N2CCCOC(c1ccccc1)(c1ccccc1)c1ccc(OC)cc1.[I-] [Cy5-Peg, 1-(3-hydroxypropyl)-1′-(3-monomethoxytritylpropyl)-5,5′-bis{2-[2-(2-methoxyethoxy)ethoxy]ethoxy}-3,3,3′,3′-tetramethyl-dicarboindocyanine iodide]
30.5%	COc1ccc(C(OCCCN2C(=CC=CC=CC3=[N+](CCCO)c4ccc(Cl)cc4C3(C)C)C(C)(C)c3cc(Cl)ccc32)(c2ccccc2)c2ccccc2)cc1.[I-] [Cy5-Cl, 5,5′-dichloro-1-(3-hydroxypropyl)-1′-(3-monomethoxytritylpropyl)-tetramethyl-dicarboindocyanine iodide]
